Results on nine compounds are retold here after US6825180B2, “Pyridopyrimidine compounds and their uses” (Cell Therapeutics, Inc., priority 2001, dated 2004).

In general, IC50 refers to the concentration needed to halve the response being measured.

Values joined by “and” are separate entries in the source; they are usually repeats but may differ in a detail not shown here. Equal values may be shown once. Where a name gives a salt, the structure may show the parent alone.

Assay [1] concerns IL-12 signaling. The experiment in a line: IL-12 dependent in vitro T-helper cell (Th1) differentiation assay. The class given is cell-based. To be noted: inhibition of IL-12 induced Th1 differentiation as defined by IFN-γ production upon secondary stimulation with anti-CD3 alone, splenic T cells, seven days culture. As to the method: This example illustrates the inventive compounds' ability to suppress Th1 differentiation in vitro by blocking IL-12 signaling. The compounds from Examples 1, 2, 6, and 7 were tested in an IL-12 dependent in vitro T-helper cell differentiation assay as described in LeGross et al., J. Exp. Med., 172:921-929 (1990). Recombinant IL-12 was used to induce Th1 differentiation. Splenic T cells were purified utilizing the antibodies RA3-3A1/6.1 (anti-B220), J11d and MAR18.5 (anti-rat kappa chain) to deplete the B cells by magnetic bead separation, as described in Coon et al, J. Immuno., 163:6567-6574 (1989). Splenic T cells were stimulated at 5×10^5/ml with insoluble anti-CD3 alone (145-2C11, Pharmingen, San Diego, Calif.), or anti-CD3 and 5 U/ml IL-12, with and without each inventive compound. After seven days, equal numbers of viable cells were restimulated for 24 hours with anti-CD3 without the inventive compounds, and the supernatants were collected and assayed for IFN—γ production. IFN-γ and IL-4 levels were measured by ELISA test specific for IFN-γ and IL-4.
Th1 differentiation was induced by culturing anti-CD3 stimulated T cells in the presence of exogenous IL-12. […] It was observed that the presence of the tested compounds during T cell activation inhibited Th1 differentiation, which had been enhanced by the addition of exogenous IL-12. The values in the “IC50 μM” column were determined by measuring the inhibition of IL-12 induced Th1 differentiation as defined by IFN-γ production upon secondary stimulation with anti-CD3 alone. None of the compounds affected the viability or recovery of T cells after one week of culture.

Assay [2] relates to IL-12 signaling. Nature of the assay: Modified acute assay. In kind it is cell-based. To be noted: T-cell, 72 h, purified splenic T cells, anti-CD3 or lectin stimulation, Interferon-γ by ELISA. As to the method: The compounds of Examples 3-10 were tested in a modified acute assay which is used to screen for compounds that perturb IL-12 signaling. The assay measures the biological effects of compounds on IL-12 signaling during the differentiation of T1 responses rather than the outcome of differentiation, as measured using a T1 Differentiation Assay. Purified splenic T cells were stimulated either by crosslinking their T cell receptors with immobilized anti-CD3 antibody or by binding with a soluble lectin (e.g. Conconavalin A). The cells were incubated for 72 hours after which time supernatants are collected and relative Interferon-γ amounts determined by ELISA. The Modified Acute Assay measured a directed IL-12 response derived from a population of cells in a variety of activation states and can be thought of as a more stochastic response.

As for `Cc1cc(=O)c2c(=O)n(CCCC[C@@H](C)O)c(=O)n(C)c2[nH]1` [Example 1, (R)-1,7-Dimethyl-3-(5-hydroxyhexyl)pyrido[2,3-d]pyrimidine-2,4,5(1H,3H,8H)-trione], the IC50 in the assay on IL-12 signaling [1] (T-cell, 168 h) was 19 µM; in the assay on IL-12 signaling [1] it was 24 µM and 28 µM.

In the assay on IL-12 signaling [1] (T-cell, 168 h), `CO[C@H](C)CCCCn1c(=O)c2c(=O)cc(C)[nH]c2n(C)c1=O` [Example 2, (R)-1,7-Dimethyl-3-(5-methoxyhexyl)pyrido[2,3-d]pyrimidine-2,4,5(1H,3H,8H)-trione] came in with an IC50 of 7 µM.

As for `CNc1cc(C)nc2c1c(=O)n(CCCC[C@@H](C)O)c(=O)n2C` [Example 3, (R)-1,7-Dimethyl-3-(5-hydroxyhexyl)-5-(N-methylamino)pyrido[2,3-d]pyrimidine-2,4(1H,3H)-dione], the IC50 in the assay on IL-12 signaling [2] was less than 10 µM.

Take `Cc1cc(=O)c2c(=O)n(CCCC[C@@H](C)O)c(=O)n(C)c2n1Cc1ccccc1` [Example 5, (R)-8-Benzyl-1,7-dimethyl-3-(5-hydroxyhexyl)pyrido[2,3-d]pyrimidine-2,4,5(1H,3H,8H)-trione]: the IC50 in the assay on IL-12 signaling [2] stood at 8 µM.

Regarding `Cc1cc(=O)c2c(=O)n(CCCC[C@@H](C)N(C)C)c(=O)n(C)c2[nH]1` [Example 6, (R)-1,7-Dimethyl-3-(5-(N,N-dimethylamino)hexyl)pyrido[2,3-d]pyrimidine-2,4,5(1H,3H,8H)-trione, Acetic Acid Salt], the IC50 came out at 14 µM with IL-12 signaling [1] (T-cell, 168 h); 16 µM in the assay on IL-12 signaling [1] (Acetic Acid Salt); 9 µM in the assay on IL-12 signaling [2].

`Cc1cc(N(C)C)c2c(=O)n(CCCC[C@@H](C)N(C)C)c(=O)n(C)c2n1` [Example 7, (R)-1,7-Dimethyl-5-(N,N-dimethylamino)-3-(5-(N,N-dimethylamino)hexyl)pyrido[2,3-d]pyrimidine-2,4(1H,3H)dione]: the IC50 is more than 40 µM in the assay with IL-12 signaling [1] (T-cell, 168 h) and 26 µM in the assay with IL-12 signaling [2].

Regarding `Cc1cc(C)c2c(=O)n(CCCC[C@@H](C)O)c(=O)n(C)c2n1` [Example 8, (R)-3-(5-Hydroxyhexyl)-1,5,7-trimethylpyrido[2,3-d]pyrimidine-2,4(1H,3H)-dione], the IC50 in the assay with IL-12 signaling [2] was 33 µM.

`Cc1cc(=O)[nH]c2c1c(=O)n(CCCC[C@@H](C)O)c(=O)n2C` [Example 9, (R)-1,5-Dimethyl 3-(5-hydroxyhexyl)pyrido[2,3-d]pyrimidine-2,4,7(1H,3H,8H)-trione] showed a 50% inhibitory concentration (IC50) in the assay on IL-12 signaling [2] of more than 40 µM.

Compound `Cc1cc(N(C)C)nc2c1c(=O)n(CCCC[C@@H](C)O)c(=O)n2C` [Example 10, (R)-1,5-Dimethyl-7-(N,N-dimethylamino)-3-(5-hydroxyhexyl)-2,4-pyrido[2,3-d]pyrimidine-2,4(1H,3H)-dione] displayed an IC50 in the assay on IL-12 signaling [2] of 6 µM.
